The values below come from US20170066759A1, “AROMATIC 5-MEMBERED HETEROCYCLIC DERIVATIVE HAVING TRPV4-INHIBITING ACTIVITY” (Shionogi & Co., Ltd., priority 2012, published 2017).

Each structure is given as a SMILES string.

The target of one assay is T1, human TRPV4 (hTRPV4/CHO cells) (Homo sapiens, UniProt Q9HBA0).
T1 construct: expressed in transfected cells; host or cells: CHO-K1
T1 sequence (Q9HBA0 whole entry): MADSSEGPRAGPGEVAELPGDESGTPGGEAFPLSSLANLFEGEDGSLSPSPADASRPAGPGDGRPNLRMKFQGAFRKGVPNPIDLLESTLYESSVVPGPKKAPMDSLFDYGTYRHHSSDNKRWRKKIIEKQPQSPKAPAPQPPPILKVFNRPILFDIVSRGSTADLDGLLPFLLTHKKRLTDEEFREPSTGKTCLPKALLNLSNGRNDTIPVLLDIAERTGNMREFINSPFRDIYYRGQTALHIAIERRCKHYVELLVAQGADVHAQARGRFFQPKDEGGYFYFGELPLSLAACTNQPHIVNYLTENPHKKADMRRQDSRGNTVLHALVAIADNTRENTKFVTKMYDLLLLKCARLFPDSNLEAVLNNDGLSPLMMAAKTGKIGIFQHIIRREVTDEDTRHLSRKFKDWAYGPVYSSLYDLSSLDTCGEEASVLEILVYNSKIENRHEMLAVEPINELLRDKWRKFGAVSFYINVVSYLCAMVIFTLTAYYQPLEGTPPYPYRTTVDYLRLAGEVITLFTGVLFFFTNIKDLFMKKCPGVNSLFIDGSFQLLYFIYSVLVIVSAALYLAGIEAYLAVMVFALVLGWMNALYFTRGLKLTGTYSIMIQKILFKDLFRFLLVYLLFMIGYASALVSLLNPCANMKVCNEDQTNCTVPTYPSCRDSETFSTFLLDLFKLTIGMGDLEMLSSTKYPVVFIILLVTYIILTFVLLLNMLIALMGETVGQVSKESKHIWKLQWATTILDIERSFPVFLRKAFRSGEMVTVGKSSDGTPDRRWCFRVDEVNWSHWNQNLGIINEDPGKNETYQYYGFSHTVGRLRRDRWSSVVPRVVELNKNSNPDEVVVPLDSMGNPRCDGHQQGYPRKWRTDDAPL
Put plainly: Test Example 1: TRPV4 inhibitory activity (IC50 value), 4α-PDD stimulation, Fluo4 calcium fluorescence (FLIPR TETRA). It is filed as cell-based. The note with it: 1 μmol/L 4α-PDD, Fluo4-AM, read-out: TRPV4 inhibitory activity (IC50 value).
Consider `Cc1nc(C)c(-c2csc(NC(=O)Cc3cc(OCC(F)(F)F)cc(C(=O)N[C@H](c4ccccc4)C(F)(F)F)c3)n2)s1` [Compound I-521], for which the 50% inhibitory concentration (IC50) amounted to 1.6 nM.

The same assay, now with this note: Test Example 1, 4α-PDD stimulation, read-out: Test 1 IC50.
Turning to `COC(=O)c1cccc(CC(=O)Nc2nc(-c3sc(C)nc3C)cs2)n1` [Compound I-509], the half-maximal inhibitory concentration (IC50) lay within 100 to 1000 nM.

As for `Cc1nc(C)c(-c2csc(NC(=O)Cc3cc(Br)cc(C(=O)N[C@H](c4ccccc4)C(F)(F)F)c3)n2)s1` [Compound I-510], the IC50 was < 100 nM.

As for `Cc1nc(C)c(-c2csc(NC(=O)Cc3cc(O)cc(C(=O)N[C@H](c4ccccc4)C(F)(F)F)c3)n2)s1` [Compound I-511], the half-inhibitory concentration (IC50) is 1000 to 8000 nM.

Consider `COCCOc1cc(CC(=O)Nc2nc(-c3sc(C)nc3C)cs2)cc(C(=O)N[C@H](c2ccccc2)C(F)(F)F)c1` [Compound I-513], for which the half-maximal inhibitory concentration (IC50) is < 100 nM.

Regarding `Cc1nc(C)c(-c2csc(NC(=O)Cc3cc(OCCN(C)C)cc(C(=O)N[C@H](c4ccccc4)C(F)(F)F)c3)n2)s1` [Compound I-514], the IC50 fell in the range of 1000 to 8000 nM.

With `Cc1nc(C)c(-c2csc(NC(=O)Cc3cc(OCCO)cc(C(=O)N[C@H](c4ccccc4)C(F)(F)F)c3)n2)s1` [Compound I-515], the IC50 was in the range of 100 to 1000 nM.

As to `Cc1nc(C)c(-c2csc(NC(=O)Cc3cc(C#N)cc(C(=O)N[C@H](c4ccccc4)C(F)(F)F)c3)n2)s1` [Compound I-516], the IC50 is < 100 nM.

Consider `Cc1nc(C)c(-c2csc(NC(=O)Cc3cc(C(=O)N[C@H](c4ccccc4)C(F)(F)F)cc([N+](=O)[O-])c3)n2)s1` [Compound I-517], for which the IC50 was < 100 nM.

Consider `Cc1nc(C)c(-c2csc(NC(=O)Cc3cc(N)cc(C(=O)N[C@H](c4ccccc4)C(F)(F)F)c3)n2)s1` [Compound I-518], for which the IC50 is < 100 nM.

For `Cc1nc(C)c(-c2csc(NC(=O)Cc3cc(C(=O)N[C@H](c4ccccc4)C(F)(F)F)cc(-c4nnn[nH]4)c3)n2)s1` [Compound I-520], the half-maximal inhibitory concentration (IC50) was in the range of 1000 to 8000 nM.

On to `Cc1nc(C)c(-c2csc(NC(=O)Cc3cc(OCC(F)(F)F)cc(C(=O)N[C@H](c4ccccc4)C(F)(F)F)c3)n2)s1` [Compound I-521], for which the IC50 is < 100 nM.

As for `Cc1nc(C)c(-c2csc(NC(=O)Cc3cc(OCC4CC4)cc(C(=O)N[C@H](c4ccccc4)C(F)(F)F)c3)n2)s1` [Compound I-522], the IC50 was < 100 nM.

As for `Cc1nc([C@H](C)O)sc1-c1csc(NC(=O)Cc2cc(Br)cc(C(=O)Nc3ccc(C(F)(F)F)cc3)c2)n1` [Compound I-523], the half-inhibitory concentration (IC50) is < 100 nM.

As to `Cc1nc([C@H](C)O)sc1-c1csc(NC(=O)Cc2cc(Br)cc(C(=O)N[C@H](c3ccccc3)C(F)(F)F)c2)n1` [Compound I-524], the IC50 is < 100 nM.

Regarding `COc1cc(CC(=O)Nc2nc(-c3sc(C)nc3C)cs2)cc(C(=O)Nc2ccc(C(F)(F)F)cc2)c1` [Compound I-525], the IC50 was < 100 nM.

On to `COc1cc(CC(=O)Nc2nc(-c3sc(C)nc3C)cs2)cc(C(=O)Nc2ccc(Cl)cc2F)c1` [Compound I-526], for which the concentration for half-maximal inhibition (IC50) is < 100 nM.

For the molecule `COc1cc(CC(=O)Nc2nc(-c3sc(C)nc3C)cs2)cc(C(=O)NC(C)(C)C(F)(F)F)c1` [Compound I-528], the IC50 is < 100 nM.

On to `Cc1nc(C)c(-c2csc(NC(=O)C3CN(c4cnc(C(F)(F)F)cn4)C3)n2)s1` [Compound I-534], for which the IC50 is < 100 nM.

On to `Cc1nc(C)c(-c2nc(NC(=O)Cc3c(F)cccc3F)sc2C2=CCCCC2)s1` [Compound I-537], for which the 50% inhibitory concentration (IC50) is 1000 to 8000 nM.

In the case of `Cc1nc(C)c(-c2nc(NC(=O)Cc3c(F)cccc3F)sc2-c2ccsc2)s1` [Compound I-538], the IC50 is 1000 to 8000 nM.

Regarding `CCOC(=O)c1nc(C)sc1-c1csc(NC(=O)Cc2c(F)cccc2F)n1` [Compound I-539], the half-inhibitory concentration (IC50) was < 100 nM.

On to `Cc1ncsc1-c1csc(NC(=O)Cc2c(F)cccc2F)n1` [Compound I-540], for which the IC50 lay in the range of 100 to 1000 nM.

With `Cc1nc(C)c(-c2csc(NC(=O)Cc3ccccc3[N+](=O)[O-])n2)s1` [Compound I-541], the IC50 was < 100 nM.

In the case of `Cc1nc(C(F)F)sc1-c1csc(NC(=O)Cc2ccc(N(C)C)cc2)n1` [Compound I-542], the half-inhibitory concentration (IC50) fell in the range of 100 to 1000 nM.

On to `Cc1nc(C(F)F)sc1-c1csc(NC(=O)C2CCC(C(F)(F)F)CC2)n1` (centres unmarked) [Compound I-543], for which the concentration for half-maximal inhibition (IC50) was in the range of 100 to 1000 nM.

A word on the IC50: it is the concentration needed to halve the response being measured.
